Row | melting point | SMILES
1 | > 280 °C | CSc1nc2ccnn2c(NC(C)=O)c1C#N [Compound No. 7]
2 | 194 °C | CSc1nc2ccnn2c(OCc2ccccc2)c1C#N [Compound No. 51, 7-benzyloxy-5-methylthiopyrazolo[1,5-a]pyrimidine-6-carbonitrile]
3 | 110 °C | CSc1nc2ccnn2c(NCc2ccco2)c1C#N [Compound No. 78, 7-furfurylamino-5-methylthiopyrazolo[1,5-a]pyrimidine-6-carbonitrile]
4 | > 240 °C | CSc1nc2ccnn2c(N)c1C#N [compound 1, 7-amino-5-methylthiopyrazolo[1,5-a]pyrimidine-6-carbonitrile]
5 | 139 °C | CSc1nc2ccnn2c(N(Cc2ccccn2)Cc2ccccn2)c1C#N [compound 6]
6 | 63 to 64 °C | CSc1nc2ccnn2c(NCOCc2ccccc2)c1C#N [compound 10]
7 | 107 °C | CSc1nc2ccnn2c(NCCc2ccccc2)c1C#N [compound 12]
8 | 184 to 185 °C | CCOC(=O)CNc1c(C#N)c(SC)nc2ccnn12 [compound 13]
9 | 215 °C | CSc1nc2ccnn2c(NCc2ccc([N+](=O)[O-])cc2)c1C#N [compound 16]
10 | 212 to 213 °C | CSc1nc2ccnn2c(NCC(=O)c2ccccc2)c1C#N [compound 18]
11 | 87 to 88 °C | CSc1nc2ccnn2c(NCCC(C)C)c1C#N [compound 19]
12 | 171 °C | COC(=O)c1ccc(CNc2c(C#N)c(SC)nc3ccnn23)cc1 [compound 23]
13 | 195 °C | CSc1nc2ccnn2c(NCc2cccc3ccccc23)c1C#N [compound 30]
14 | 167 °C | CSc1nc2ccnn2c(NCc2ccc(Cl)cc2)c1C#N [compound 31]
15 | 155 °C | CSc1nc2ccnn2c(NCc2cccc(Cl)c2)c1C#N [compound 32]
16 | 160 °C | CSc1nc2ccnn2c(NCc2ccccc2Cl)c1C#N [compound 33]
17 | 188 °C | CSc1nc2ccnn2c(N=Cc2ccccc2)c1C#N [compound 34]
18 | > 250 °C | CSc1nc2nc(SC)c(C#N)c(N)n2n1 [compound 35]
19 | 154 °C | CSc1nc2nc(SC)c(C#N)c(NCc3ccccc3)n2n1 [compound 36]
20 | 230 to 233 °C | CSc1nc2nc(SC)c(C#N)c(NCc3ccncc3)n2n1 [compound 38]
21 | 133 °C | CSc1nc(NCc2ccccc2)n2nccc2n1 [compound 39]
22 | > 250 °C | CSc1nc2ccnn2c(N)c1C#N [compound 41]

Row | melting point | SMILES
23 | 179 °C | CSc1nc2nccn2c(NCc2ccccc2)c1C#N [compound 42]
24 | 233 °C | CSc1nc2cc(-c3ccccc3)nn2c(N)c1C#N [compound 44]
25 | > 250 °C | CSc1nc2nc3ccccc3n2c(N)c1C#N [compound 45]
26 | > 250 °C | CSc1nc2ccnn2c(O)c1C#N [compound 49, 7-hydroxy-5-methylthiopyrazolo[1,5-a]pyrimidine-6-carbonitrile]
27 | > 250 °C | CSc1nc2c(Br)cnn2c(N)c1C#N [compound 54]
28 | 184 °C | CSc1nc2c(Br)cnn2c(NCc2ccccc2)c1C#N [compound 55]
29 | 137 °C | COc1ccc(CNc2c(C#N)c(SC)nc3ccnn23)cc1 [compound 56]
30 | 230 to 233 °C | CSc1nc2ccnn2c(N)c1S(C)(=O)=O [compound 58]
31 | 175 °C | C#CCNc1c(S(C)(=O)=O)c(SC)nc2ccnn12 [compound 59]
32 | 163 to 164 °C | CSc1nc2ccnn2c(NCc2ccccc2)c1S(C)(=O)=O [compound 61]
33 | 201 to 202 °C | CSc1nc2ccnn2c(Cl)c1C#N [compound 62, 7-chloro-5-methylthiopyrazolo[1,5-a]pyrimidine-6-carbonitrile]
34 | 195 to 196 °C | CSc1nc2ccnn2c(NCc2ccncc2)c1S(C)(=O)=O [compound 63]
35 | > 240 °C | CCSc1nc2ccnn2c(N)c1C#N [compound 66]
36 | 112 to 113.4 °C | CCSc1nc2ccnn2c(NCc2ccccc2)c1C#N [compound 67]
37 | 245.6 to 245.9 °C | N#Cc1c(SCc2ccccc2)nc2ccnn2c1N [compound 69]
38 | 121 to 122.2 °C | N#Cc1c(SCc2ccccc2)nc2ccnn2c1NCc1ccccc1 [compound 70]
39 | 258.5 to 259 °C | C=CCSc1nc2ccnn2c(N)c1C#N [compound 75]
40 | 178.8 to 179.8 °C | C=CCSc1nc2ccnn2c(NCc2ccncc2)c1C#N [compound 76]
41 | 90 to 91.5 °C | C=CCSc1nc2ccnn2c(NCc2ccccc2)c1C#N [compound 77]
42 | 260 to 263 °C | CSc1nc2ccnn2c(Nc2ccncc2)c1C#N [compound 81]
43 | 207 °C | CSc1nc2ccnn2c(NCC#N)c1C#N [compound 84]
44 | > 250 °C | N#Cc1c(-c2ccccc2)nc2ccnn2c1N [compound 85]

Row | melting point | SMILES
45 | 120 to 122 °C | N#Cc1c(-c2ccccc2)nc2ccnn2c1NCc1ccccc1 [compound 86]
46 | 242 °C | N#Cc1c(Cc2ccccc2)nc2ccnn2c1N [compound 87]
47 | 163 °C | N#Cc1c(Cc2ccccc2)nc2ccnn2c1NCc1ccccc1 [compound 88]
48 | 199 to 201 °C | N#Cc1c(-c2ccccc2)nc2ccnn2c1NCc1ccncc1 [compound 89]
49 | 195 to 198 °C | N#Cc1c(Cc2ccccc2)nc2ccnn2c1NCc1ccncc1 [compound 90]
50 | > 250 °C | N#Cc1c(C2CCCCC2)nc2ccnn2c1N [compound 91]
51 | 206 °C (dec.) | C#CCSc1nc2ccnn2c(N)c1C#N [compound 94]
52 | 142.2 to 144.2 °C | C#CCSc1nc2ccnn2c(NCc2ccccc2)c1C#N [compound 95]
53 | 208.5 to 208.7 °C | C#CCSc1nc2ccnn2c(NCc2ccncc2)c1C#N [compound 96]
54 | 270.5 to 271.3 °C | N#Cc1c(SC2CCCC2)nc2ccnn2c1N [compound 103]
55 | 115.8 to 116.6 °C | N#Cc1c(SC2CCCC2)nc2ccnn2c1NCc1ccccc1 [compound 104]
56 | 214 to 216 °C (dec.) | COCSc1nc2ccnn2c(N)c1C#N [compound 106]
57 | 137.4 to 141.4 °C | COCSc1nc2ccnn2c(NCc2ccccc2)c1C#N [compound 107]
58 | 117 to 118 °C | CSc1nc2cccn2c(NC2CCCCC2)c1C#N [compound 109]
59 | 242 to 243.8 °C | CCC(CC)Sc1nc2ccnn2c(N)c1C#N [compound 113]
60 | 107 to 108.3 °C | CCC(CC)Sc1nc2ccnn2c(NCc2ccccc2)c1C#N [compound 114]
61 | 129 to 133.4 °C | CCC(CC)Sc1nc2ccnn2c(NCc2ccncc2)c1C#N [compound 115]
62 | 130.5 to 133.5 °C | CCOCSc1nc2ccnn2c(NCc2ccccc2)c1C#N [compound 117]
63 | 105 to 113 °C | COC(=O)c1c(SC)nc2ccnn2c1Cl [compound 119]
64 | 84.5 to 85.5 °C | COC(=O)c1c(SC)nc2ccnn2c1NC1CCCC1 [compound 123]
65 | 136.5 to 138.5 °C | CSc1nc2ccnn2c(NCc2ccccc2)c1[N+](=O)[O-] [compound 125]
